From patent US7544703B2, “Cyclic compound having 4-pyridylalkylthio group having substituted or unsubstituted amino group introduced therein” (Santen Pharmaceutical Co., Ltd., priority 2004, dated 2009)
Structures can show the parent of a compound that is named as a salt.

system: HUVEC (normal human umbilical vein endothelial cells); assay: VEGF-induced HUVEC proliferation: cell proliferation inhibitory action test; format: cell-based; details: 72 h, 5 μL of 20 μg/mL test compound solution per well, WST-8 absorbance at 450 nm three days after VEGF addition, read-out: Cell proliferation inhibition rate (%);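 also: each well holds 100 µL cell suspension before compound addition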
Description: A cell proliferation inhibitory action test of the compounds of the present invention was performed using a VEGF-induced HUVEC proliferation evaluation system (HUVEC stands for normal human umbilical vein endothelial cells), which is one of the widely-used methods of evaluating in vitro angiogenesis inhibitory effects of drugs. As one of the widely-used methods of evaluating angiogenesis inhibitory effects of drugs, a cell proliferation inhibitory action test using a VEGF-induced HUVEC proliferation reaction evaluation system has been reported in Cancer Res., 59, 99-106 (1999). According to the method described in the above-mentioned document, a cell proliferation inhibitory action test of the compounds of the present invention was performed, the cell proliferation inhibition rate was calculated, and the angiogenesis inhibitory effect of each of the compounds of the present invention was evaluated using the obtained rate as an index. Each test compound was dissolved in dimethyl sulfoxide (hereinafter abbreviated as DMSO), and the obtained solution was diluted with a commercially available phosphoric acid buffer solution (hereinafter abbreviated as PBS), whereby a 20 μg/mL test compound solution was prepared. HUVEC was suspended in a 0.5% fetal bovine serum (hereinafter abbreviated as FBS)-containing F12K medium, whereby a 2×10^4 cells/mL HUVEC suspension was prepared. VEGF was dissolved in 0.1% bovine serum albumin-containing PBS, and the obtained solution was diluted with the 0.5% FBS-containing F12K medium, whereby a 400 ng/mL VEGF solution was prepared. • 1) The HUVEC suspension was inoculated in an amount of 100 μL into each well of a 96-well plate coated with type I collagen (2×10^3 cells per well). • 2) One day after the inoculation, the test compound solution was added in an amount of 5 μL per well. • 3) One hour after the addition of the test compound solution, the VEGF solution was added in an amount of 5 μL per well. • 4) Three days after the addition of the VEGF solution, WST-8 assay kit (Dojin Chemical Co., Ltd.) was added in an amount of 10 μL per well. • 5) After 3 hours, the above-mentioned plate was attached to an absorptiometer (Multilabel Counter ARVO), and an absorbance at 450 nm of each well suspension (hereinafter referred to as test compound suspension) was measured. • 6) A test was carried out in the same manner as in the above 1) to 5) except that 1.0% DMSO was used instead of the test compound solution. The result was used as a control. Incubation was carried out under conditions of 37° C., 5% carbon dioxide and […] in an incubator throughout the above-mentioned test steps. The cell proliferation inhibition rate (%), which was used as an index of an angiogenesis inhibitory effect, was calculated according to the following calculation equation. Cell proliferation inhibition rate (%)=100−{(Absorbance of test compound suspension−A)/(absorbance of control−A)}×100 (Calculation Equation) A: Absorbance of only cell suspension (cell+medium) (Test Results and Discussion)

SMILES | inhibition at 20 µg/mL (stock)
Cc1cc(C)cc(NC(=O)c2cccnc2SCc2ccnc(NC(=O)Nc3ccc(Cl)cc3)c2)c1 [Compound 5-3, 2-[2-(N′-4-Chlorophenylureido)pyridin-4-ylmethylthio]-N-(3,5-dimethylphenyl)pyridine-3-carboxamide] | 100%
Cc1cc(C)cc(NC(=O)c2cccnc2SCc2ccnc(Nc3ncc(C#N)s3)c2)c1 [Compound 2-24, 2-[2-(5-Cyanothiazol-2-ylamino)pyridin-4-ylmethylthio]-N-(3,5-dimethylphenyl)pyridine-3-carboxamide] | 88%
Nc1cc(CSc2ncccc2C(=O)Nc2cc3ccccc3cn2)ccn1 [Compound 3-13, 2-(2-Aminopyridin-4-ylmethylthio)-N-(isoquinolin-3-yl)pyridine-3-carboxamide] | 100%
CC(=O)Nc1cc(CSc2ncccc2C(=O)Nc2cc(C)c(O)c(C)c2)ccn1 [Compound 4-37, 2-(2-Acetylaminopyridin-4-ylmethylthio)-N-(3,5-dimethyl-4-hydroxyphenyl)pyridine-3-carboxamide] | 100%
CCCCCNc1cc(CSc2ncccc2C(=O)Nc2cc(C)cc(C)c2)ccn1 [Compound 1-20, N-(3,5-Dimethylphenyl)-2-(2-n-pentylaminopyridin-4-ylmethylthio)pyridine-3-carboxamide] | 100%
Nc1cc(CSc2ncccc2C(=O)Nc2ccc3c(c2)CCC3)ccn1 [Compound 3-3, 2-(2-Aminopyridin-4-ylmethylthio)-N-(indan-5-yl)pyridine-3-carboxamide monohydrochloride] | 100%
Cc1cc(C)cc(NC(=O)c2cccnc2SCc2ccnc(NC3CC3)c2)c1 [Compound 1-2, 2-(2-Cyclopropylaminopyridin-4-ylmethylthio)-N-(3,5-dimethylphenyl)pyridine-3-carboxamide] | 100%
Cc1cc(C)cc(NC(=O)c2cccnc2SCc2ccnc(Nc3ccccc3)c2)c1 [Compound 8-1, N-(3,5-Dimethylphenyl)-2-(2-phenylaminopyridin-4-ylmethylthio)pyridine-3-carboxamide] | 100%
O=C(Nc1ccc2c(c1)CCC2)c1cccnc1SCc1ccnc(N2CCOCC2)c1 [Compound 1-10, N-(Indan-5-yl)-2-(2-morpholinopyridin-4-ylmethylthio)pyridine-3-carboxamide] | 94%
CC(=O)Nc1cc(CSc2ccsc2C(=O)Nc2ccc(Cl)cc2)ccn1 [Compound 4-57, 3-(2-Acetylaminopyridin-4-ylmethylthio)-N-(4-chlorophenyl)thiophene-2-carboxamide] | 100%
Cc1cc(C)cc(NC(=O)c2cccnc2SCc2ccnc(NC(=O)OC(C)(C)C)c2)c1 [Compound 2-1, 2-(2-tert-Butoxycarbonylaminopyridin-4-ylmethylthio)-N-(3,5-dimethylphenyl)pyridine-3-carboxamide] | 100%
CC(=O)N(C)c1cc(CSc2ncccc2C(=O)Nc2cc(C)cc(C)c2)ccn1 [Compound 4-12, 2-[2-(N-Acetyl-N-methylamino)pyridin-4-ylmethylthio]-N-(3,5-dimethylphenyl)pyridine-3-carboxamide] | 100%
Cc1cc(C)cc(NC(=O)c2cccnc2SCc2ccnc(NC=O)c2)c1 [Compound 6-1, N-(3,5-Dimethylphenyl)-2-(2-formylaminopyridin-4-ylmethylthio)pyridine-3-carboxamide] | 100%
Cc1cc(C)cc(NC(=O)c2sccc2SCc2ccnc(N)c2)c1 [Compound 3-28, 3-(2-Aminopyridin-4-ylmethylthio)-N-(3,5-dimethylphenyl)thiophene-2-carboxamide] | 100%
CC(C)(C)c1ccc(NC(=O)c2cccnc2SCc2ccnc(N)c2)cc1 [Compound 3-4, 2-(2-Aminopyridin-4-ylmethylthio)-N-(4-tert-butylphenyl)pyridine-3-carboxamide monohydrochloride] | 100%
CC(C)(C)OC(=O)Nc1cc(CSc2ncccc2C(=O)Nc2ccc(C(C)(C)C)cc2)ccn1 [Compound 2-5, 2-(2-tert-Butoxycarbonylaminopyridin-4-ylmethylthio)-N-(4-tert-butylphenyl)pyridine-3-carboxamide] | 95%
CNc1cc(CSc2ncccc2C(=O)Nc2ccc3c(c2)CCC3)ccn1 [Compound 3-7, N-(Indan-5-yl)-2-(2-methylaminopyridin-4-ylmethylthio)pyridine-3-carboxamide monohydrochloride] | 96%
CC(C)(C)OC(=O)Nc1cc(CSc2ncccc2C(=O)Nc2ccc(OC(F)(F)F)cc2)ccn1 [Compound 2-4, 2-(2-tert-Butoxycarbonylaminopyridin-4-ylmethylthio)-N-(4-trifluoromethoxyphenyl)pyridine-3-carboxamide] | 99%
CC(C)(C)OC(=O)Nc1cc(CSc2ncccc2C(=O)Nc2ccc3cn[nH]c3c2)ccn1 [Compound 2-6, 2-(2-tert-Butoxycarbonylaminopyridin-4-ylmethylthio)-N-(1H-indazol-6-yl)pyridine-3-carboxamide] | 100%
Nc1cc(CSc2ncccc2C(=O)Nc2ccc3cn[nH]c3c2)ccn1 [Compound 3-5, 2-(2-Aminopyridin-4-ylmethylthio)-N-(1H-indazol-6-yl)pyridine-3-carboxamide monohydrochloride] | 96%
CC(=O)Nc1cc(CSc2ccccc2C(=O)Nc2ccc(C(C)(C)C)cc2)ccn1 [Compound 4-44, 2-(2-Acetylaminopyridin-4-ylmethylthio)-N-(4-tert-butylphenyl)benzamide] | 85%
CNC(=O)Nc1cc(CSc2ncccc2C(=O)Nc2ccc(Cl)cc2)ccn1 [Compound 9-3, N-(4-Chlorophenyl)-2-[2-(N′-methylureido)pyridin-4-ylmethylthio]pyridine-3-carboxamide] | 100%
Cc1cc(C)cc(NC(=O)c2cccnc2SCc2ccnc(N3CCN(C)CC3)c2)c1 [Compound 1-1, N-(3,5-Dimethylphenyl)-2-[2-(4-methylpiperazin-1-yl)pyridin-4-ylmethylthio]pyridine-3-carboxamide] | 97%
CN(C)CCN(C)CC(=O)NC(Sc1ncccc1C(=O)Nc1ccc(OC(F)F)cc1)c1ccncc1 (stereo not drawn) [Compound 17-50, N-(4-Difluoromethoxyphenyl)-2-[2-(N-(2-dimethylaminoethyl)-N-methylamino)acetylaminopyridin-4-ylmethylthio]pyridine-3-carboxamide] | 100%
CNC(=O)Nc1cc(CSc2ncccc2C(=O)Nc2ccc(OC(F)F)cc2)ccn1 [Compound 9-4, N-(4-Difluoromethoxyphenyl)-2-[2-(N′-methylureido)pyridin-4-ylmethylthio]pyridine-3-carboxamide] | 100%
CC(=O)Nc1cc(CSc2ccccc2C(=O)Nc2ccc(Cl)cc2)ccn1 [Compound 4-42, 2-(2-Acetylaminopyridin-4-ylmethylthio)-N-(4-chlorophenyl)benzamide] | 100%
CC(=O)Nc1cc(CSc2ncccc2C(=O)Nc2ccc3cn[nH]c3c2)ccn1 [Compound 4-22, 2-(2-Acetylaminopyridin-4-ylmethylthio)-N-(1H-indazol-6-yl)pyridine-3-carboxamide] | 97%
Cc1cc(C)cc(NC(=O)c2cccnc2SCc2ccnc(NC(=O)NC(C)(C)C)c2)c1 [Compound 5-2, 2-[2-(N′-tert-Butylureido)pyridin-4-ylmethylthio]-N-(3,5-dimethylphenyl)pyridine-3-carboxamide] | 100%
Cc1cc(C)cc(NC(=O)c2cccnc2SCc2ccnc(N(C)CCN(C)C)c2)c1 [Compound 1-3, 2-[2-(N-(2-Dimethylaminoethyl)-N-methylamino)pyridin-4-ylmethylthio]-N-(3,5-dimethylphenyl)pyridine-3-carboxamide] | 99%
Cc1cc(C)cc(NC(=O)c2cccnc2SCc2ccnc(N(C)C(=O)OC(C)(C)C)c2)c1 [Compound 2-7, 2-[2-(N-tert-Butoxycarbonyl-N-methylamino)pyridin-4-ylmethylthio]-N-(3,5-dimethylphenyl)pyridine-3-carboxamide] | 52%
